Data on one substance can be found in patent US10532085B2, “Methods for increasing intracellular activity of Hsp70” (Orphazyme A/S, priority 2010, dated 2020).

Data set [1] deals with primary fibroblasts from Niemann-Pick Disease type A patient. The data set is described as follows: Lysosomal cross-sectional area in NPDA patient fibroblasts. Format: cell-based, Human. As to conditions: pulse-chase, added at T=0, measured at 24 h, 48 h, 72 h and 1 week; patient id 83/24; effect reversible. The procedure:
FIG. 5: Pulse-Chase experiment. rhHSP70 (recombinant human HSP70) was added to primary fibroblasts from Niemann-Pick Disease type A patient (patient id: 83/24) at T=0, measurements of lysosomal cross-sectional area were performed at 24 h, 48 h, 72 h and 1 week after administration. […] Conclusion: The effect of rhHSP70 is reversible and lasts ca. 1 week.
FIG. 6: Arimoclomol dose-titration experiment. Various concentrations of Arimoclomol (‘Ari’) added for 48 h to primary fibroblasts from Niemann-Pick Disease type A patient (patient id: 83/24). Read-out: lysosomal cross-sectional area.

For data set [2], the system named is primary fibroblasts from Mucopolysaccharidosis type IVA patient. Put plainly: Lysosomal cross-sectional area, laser confocal microscopy, MPS IVA fibroblasts. In kind it is cell-based, human. Particulars: Alexa Fluor 488 labelled, added for 48 h; GM00958. The procedure:
FIG. 9: Test of rhHSP70 in non-sphingolipidosis. rhHSP70 labelled with Alexa Fluor 488 (for visualization of uptake) was added for 48 h to primary fibroblasts from Mucopolysaccharidosis type IVA (aka (Morbus) Morquio type IVA) patient (Coriell Cell Repository ID: GM00958). Read-out: lysosomal cross-sectional area (Primary cellular pathology), performed by laser confocal microscopy.

Another data set relates to NPDA cells. Put plainly: Volume of the lysosomal compartment in NPDA cells. In kind it is cell-based, Human. From the text: BMP binds ASM with high affinity and stimulates its ability to hydrolyze sphingomyelin to ceramide and phosphorylcholine. […] In order to test whether ASM is responsible for the lysosome stabilizing effect we treated the cells with desipramine, a well characterized pharmacological ASM inhibitor. […] It should be noted that akin to rHsp70, also rASM localized to the lysosomes.
Primary antibodies used included mouse monoclonal antibodies against Hsp70 (2H9; kindly provided by Boris Margulis, Russian Academy of Sciences, St. Petersburg, Russia), glyceraldehyde-3-phosphate dehydrogenase (GAPDH; Biogenesis), BMP (6C4), lysosomal integral membrane protein-1 (H5C6; developed by J. Thomas August and James E. K. Hildreth and obtained from the Developmental Studies Hybridoma Bank developed under the auspices of the NICHD and maintained by The University of Iowa, Department of Biological Sciences, Iowa City, USA). Proteins separated by 10% SDS-PAGE and transferred to a nitrocellulose membrane were detected by using indicated primary antibodies, appropriate peroxidase-conjugated secondary antibodies from Dako, ECL Western blotting reagents (Amersham), and Luminescent Image Reader (LAS-1000Plus, Fujifilm). For immunocytochemistry Alexa […] or Alexa Fluor®-488-conjugated secondary antibodies were used. […] Fluorescence images were taken using a Zeiss Axiovert 100M laser scanning microscope. […]

The subject of a further data set is NPC−/− mice. Put plainly: NPC1 in vivo pilot study: video recording and observation of condition. Particulars: 10 mg/kg IP three times per week. The procedure:
Eight treated (rHSP70) NPC^−/− versus eight control (PBS only) NPC^−/− controls. Mice were treated IP three times per week with either 10 mg/kg of rHSP70 or vehicle alone (PBS) from 3 weeks of age. Three control and three treated mice were sacrificed at 7 or 9 weeks old (i.e. after 4 or 6 weeks of treatment, respectively). Organs were perfused (PBS), weighed and frozen for biochemical and immunohistochemical analysis.
Due to the small number of animals remaining after the 7 and 9 week time points we were unable to draw any conclusions regarding increased survival.

Where [3] appears, read: video recording at 9 and 10 weeks.

As to “rHsp70: recombinant (human) heat shock protein 70; in some tests labelled with Alexa Fluor 488”, the “duration of the effect on lysosomal cross-sectional area” value in data set [1] is listed as “ca. 1 week”. Also, the “lysosomal cross-sectional area (primary cellular pathology)” value in data set [2] is “effectively reverts the lysosomal primary pathology”. The “volume of the enlarged lysosomal compartment in NPDA cells” value with NPDA cells was “normalize the volume”. Besides, the “condition at the point of culling” value in the data set with NPC−/− mice is reported as “deteriorated quite badly within the space of a few days”. Besides, in the data set with NPC−/− mice (setting [3]), the “activity and tremor on video” value was “more active and had increased tremor”; the “size and coat condition” value is “larger, with better coat condition”.
